Where “and” joins values, the source holds several entries; their conditions need not be identical. Equal values may be shown once.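 Where inhibition never reached the appropriate level, the endpoint shown equals the highest concentration tested. Otherwise, values were interpolated linearly from a five-concentration, 48-hour dose response in 96-well plates. GI50 marks 50% less growth. TGI: total growth inhibition.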
Key:
Experiment in all cases: NCI-60 cell line screen, 48 h
NCI-H23 lung = tested on: NCI-H23 lung
IGROV1 ovarian = tested on: IGROV1 ovarian
A498 renal = tested on: A498 renal
SK-MEL-2 melanoma = tested on: SK-MEL-2 melanoma
UACC-62 melanoma = tested on: UACC-62 melanoma
SF-268 CNS = tested on: SF-268 CNS
OVCAR-4 ovarian = tested on: OVCAR-4 ovarian
CAKI-1 renal = tested on: CAKI-1 renal
ACHN renal = tested on: ACHN renal
HCT-116 colon = tested on: HCT-116 colon

| Structure (SMILES) | GI50 (NCI-H23 lung) | TGI (NCI-H23 lung) | GI50 (IGROV1 ovarian) | TGI (IGROV1 ovarian) | GI50 (A498 renal) [µM] | TGI (A498 renal) | GI50 (SK-MEL-2 melanoma) [µM] | TGI (SK-MEL-2 melanoma) | GI50 (UACC-62 melanoma) [nM] | TGI (UACC-62 melanoma) | GI50 (SF-268 CNS) [µM] | TGI (SF-268 CNS) | GI50 (OVCAR-4 ovarian) | TGI (OVCAR-4 ovarian) | GI50 (CAKI-1 renal) [µM] | TGI (CAKI-1 renal) | GI50 (ACHN renal) | TGI (ACHN renal) | GI50 (HCT-116 colon) [nM] | TGI (HCT-116 colon) |
| --- | --- | --- | --- | --- | --- | --- | --- | --- | --- | --- | --- | --- | --- | --- | --- | --- | --- | --- | --- | --- |
| C/C(=N\NC(=S)N1CCCC1)c1ccccn1 | < 0.01 µM | 42.8 µM | < 0.01 µM | 5.09 µM | 0.0798 | 2.37 µM | 0.242 | 14.4 µM | 90 | 0.534 µM | 0.0261 | 12.7 µM | < 0.01 µM | 2.3 µM | 0.0353 | 6.86 µM | < 10 nM | 7.53 µM | < 10 | 12.1 µM |
| Cc1c(-c2ccc(-c3ccccc3F)cc2)nc2ccc(F)cc2c1C(=O)O | 17.4 µM and 35.1 µM | 173 µM and 529 µM | 0.726 µM and 0.654 µM | 64.8 µM and 227 µM | – | 181 µM and 647 µM | 135 | 148 µM and 909 µM | 500 | 48.4 µM and 164 µM | – | 173 µM and 866 µM | 41 µM and 81.6 µM | 88.7 µM and 524 µM | 3.34 | 105 µM and 109 µM | 617 nM and 1670 nM | 181 µM and 492 µM | 500 | 78.7 µM and 124 µM |
| Cc1cc(C)nc(NC(=O)COc2ccc(Cl)cc2)c1 | – | > 100 µM | – | > 100 µM | – | > 100 µM | – | > 100 µM | – | > 100 µM | – | > 100 µM | – | > 100 µM | – | > 100 µM | – | > 100 µM | – | > 100 µM |
| COc1cccc(C=NC23CC4CC(CC(C4)C2)C3)c1 | – | > 100 µM | – | > 100 µM | – | > 100 µM | – | > 100 µM | – | > 100 µM | – | > 100 µM | – | > 100 µM | – | > 100 µM | – | > 100 µM | – | > 100 µM |
| CNC(=O)NCCCCC(NC(C)=O)C(=O)NCc1ccccc1 (configuration not stated) | – | > 100 µM | – | > 100 µM | – | > 100 µM | – | > 100 µM | – | > 100 µM | – | > 100 µM | – | > 100 µM | – | > 100 µM | – | > 100 µM | – | > 100 µM |
| CCOC(=O)C(Cc1cc(OC)c(CC(C(=O)OCC)C(=O)OCC)cc1OC)C(=O)OCC | – | > 100 µM | – | > 100 µM | – | > 100 µM | – | > 100 µM | – | > 100 µM | – | > 100 µM | – | > 100 µM | – | > 100 µM | – | > 100 µM | – | > 100 µM |
| O=C(C#Cc1ccccc1)NC/C=C/c1ccccc1 | – | > 100 µM | – | > 100 µM | – | > 100 µM | – | 97.4 µM | – | > 100 µM | – | > 100 µM | – | > 100 µM | – | > 100 µM | – | > 100 µM | – | > 100 µM |
| CN(CCOc1ccc(NS(C)(=O)=O)cc1)CCc1ccc(NS(C)(=O)=O)cc1 | > 100 µM | > 100 µM | > 100 µM | > 100 µM | 96 | > 100 µM | > 100 | > 100 µM | > 100000 | > 100 µM | > 100 | > 100 µM | > 100 µM | > 100 µM | > 100 | > 100 µM | > 100000 nM | > 100 µM | > 100000 | > 100 µM |
| COC1CCC(OC)C(c2nc3sccn3c2/C=N/N=C(N)N)C1 (configuration not stated) | 3.69 µM | > 35.5 µM | 50 µM | > 100 µM | 10.9 | 41.5 µM | 25.7 | > 62.4 µM | 16600 | 32.4 µM | 18.5 | 45.8 µM | 43.5 µM | > 100 µM | > 10.5 | > 82.5 µM | > 100000 nM | > 100 µM | 4900 | 37.7 µM |
| CCOC(=O)/C=C/c1ccc([N+](=O)[O-])o1 | 4.12 µM | 18.4 µM | 10.9 µM | 24.8 µM | 21 | 48.8 µM | 11.3 | 36.8 µM | 1710 | 4.36 µM | 5.38 | 40.5 µM | 4.93 µM | 20.4 µM | 2.06 | 4.38 µM | 1750 nM | 3.8 µM | 1620 | 5.62 µM |
| O=C1N=C2N=C(c3ccc(Cl)cc3)N(c3ccc(Cl)cc3)N2Sc2ccccc21 | – | > 100 µM | – | > 100 µM | – | > 100 µM | – | > 100 µM | – | > 100 µM | – | > 100 µM | – | > 100 µM | – | > 100 µM | – | > 100 µM | – | > 100 µM |
| COc1ccc(C2=NNC(c3sc(Cl)nc3Cl)C2)cc1 (configuration not stated) | 10.6 µM | 26.7 µM | 5.21 µM | 22.2 µM | 33.1 | > 100 µM | 5.47 | 21 µM | 6940 | 21.1 µM | 5.65 | 27.5 µM | 11.5 µM | 25.4 µM | 11.8 | 39.4 µM | 4580 nM | 20.6 µM | 3390 | 14.9 µM |
| CN(Cc1cnc2nc(N)nc(N)c2n1)c1c(Cl)cc(C(=O)NC(CCC(=O)O)C(=O)O)cc1Cl (configuration not stated) | 0.0277 µM | > 100 µM | < 0.01 µM | > 100 µM | 0.0994 | > 100 µM | > 100 | > 100 µM | < 10.6 | > 100 µM | < 0.0169 | > 100 µM | – | > 100 µM | < 0.01 | 0.0242 µM | < 10 nM | > 100 µM | < 10 | > 100 µM |
| CC(C)C(Br)C(=O)NCC(=O)O (configuration not stated) | – | > 100 µM | – | > 100 µM | – | > 100 µM | – | > 100 µM | – | > 100 µM | – | > 100 µM | – | > 100 µM | – | > 100 µM | – | > 100 µM | – | > 100 µM |
| CC(=O)/C(=N\N=C(N)N)c1ccccc1 | – | > 100 µM | – | > 100 µM | – | > 100 µM | – | > 100 µM | – | > 100 µM | – | > 100 µM | – | > 100 µM | – | > 100 µM | – | > 100 µM | – | > 100 µM |
| O=C(O)CCN1C(=S)CSC1=S | – | > 100 µM | – | > 100 µM | – | > 100 µM | – | > 100 µM | – | > 100 µM | – | > 100 µM | – | > 100 µM | – | > 100 µM | – | > 100 µM | – | > 100 µM |

Source: PubChem BioAssay (NCI)
